This is an account of results in patent US8871934B2, “Fluorene compound and pharmaceutical use thereof” (Japan Tobacco Inc., priority 2008, dated 2014).

As a reminder, the IC50 is the concentration that inhibits the measured activity by half.

Where two headings read alike, the source gives them in different places.

This assay addresses human PDHK2 (hPDHK2) (Homo sapiens (Human), UniProt Q15119). The assay is described as follows: Inhibitory action of PDHK activity in vitro (kinase reaction, residual PDH activity measured). The class given is biochemical.
Setting [1] is: PDHK inhibitory activity, class symbol of IC50.
Where [2] appears, read: read-out: PDHK inhibitory activity IC50.

With `O=C1CCCN1CCOc1cc(-c2cn[nH]c2)c2c(c1)C(O)(C(F)(F)F)c1ccccc1-2` (centres unmarked) [compound 491], the half-maximal inhibitory concentration (IC50) is less than 100 nM under setting [1] and 20 nM under setting [2].
The corresponding values for `Cc1cc(-c2cnn(CCO)c2)c2c(c1)C(O)(C(F)(F)F)c1ccccc1-2` (centres unmarked) [compound 492] are less than 100 nM and 40 nM.
The corresponding values for `NC(=O)Cn1cc(-c2cccc3c2-c2ccccc2C3(O)C(F)(F)F)cn1` (centres unmarked) [compound 493] are less than 100 nM and 39 nM.
On the same counts, the results for `CNC(=O)Cn1cc(-c2cccc3c2-c2ccccc2C3(O)C(F)(F)F)cn1` (centres unmarked) [compound 494] are less than 100 nM and 44 nM.
As to `CN(C)C(=O)Cn1cc(-c2cccc3c2-c2ccccc2C3(O)C(F)(F)F)cn1` (centres unmarked) [compound 495], the IC50 was 100 to 1000 nM under setting [1] and 119 nM under setting [2].
Turning to `O=C(COc1cc(-c2cnn(CCO)c2)c2c(c1)C(O)(C(F)(F)F)c1ccccc1-2)N1CCC1` (centres unmarked) [compound 496], the 50% inhibitory concentration (IC50) is, setting by setting: under setting [1], less than 100 nM; under setting [2], 23 nM.
The corresponding values for `O=C(COc1cc(-c2cnn(CCO)c2)c2c(c1)C(O)(C(F)(F)F)c1ccccc1-2)N1CC(O)C1` (centres unmarked) [compound 497] are less than 100 nM and 31 nM.
Turning to `O=C(O)CCCOc1cc(-c2cn[nH]c2)c2c(c1)C(O)(C(F)(F)F)c1ccccc1-2` (centres unmarked) [compound 498], the IC50 is less than 100 nM under setting [1] and 47 nM under setting [2].
On the same counts, the results for `CC(=O)N(C)C[C@@H](O)COc1cc(-c2cnn(C)c2)c2c(c1)C(O)(C(F)(F)F)c1ccccc1-2` (some centres unmarked) [compound 499] are less than 100 nM and 39 nM.
On the same counts, the results for `CC(=O)N(C)C[C@H](O)COc1cc(-c2cnn(C)c2)c2c(c1)C(O)(C(F)(F)F)c1ccccc1-2` (some centres unmarked) [compound 500] are less than 100 nM and 31 nM.
On the same counts, the results for `CN(CCOc1cc(-c2cnn(C)c2)c2c(c1)C(O)(C(F)(F)F)c1ccccc1-2)C(=O)C(C)(C)O` (centres unmarked) [compound 501] are less than 100 nM and 32 nM.
In the case of `NC(=O)c1cc(OCCN2CCCC2=O)cc2c1-c1ccccc1C2(O)C(F)(F)F` (centres unmarked) [compound 502], the IC50 by setting is: under setting [1], less than 100 nM; under setting [2], 48 nM.
Turning to `NC(=O)COc1cc(-c2cn[nH]c2)c2c(c1)C(O)(C(F)(F)F)c1ccccc1-2` (centres unmarked) [compound 503], the IC50 under setting [1] is less than 100 nM and the IC50 under setting [2] came to 45 nM.
The corresponding values for `OCCn1cc(-c2cc(F)cc3c2-c2ccccc2C3(O)C(F)(F)F)cn1` (centres unmarked) [compound 505] are less than 100 nM and 46 nM.
The corresponding values for `NC(=O)Cn1cc(-c2cc(Cl)cc3c2-c2ccccc2C3(O)C(F)(F)F)cn1` (centres unmarked) [compound 506] are less than 100 nM and 30 nM.
In the case of `Cc1cc(-c2cnn(CC(N)=O)c2)c2c(c1)C(O)(C(F)(F)F)c1ccccc1-2` (centres unmarked) [compound 507], the IC50 reads like this: under setting [1], less than 100 nM; under setting [2], 26 nM.
On the same counts, the results for `NC(=O)Cn1cc(-c2cc(OCCC34CC5CC(CC(C5)C3)C4)cc3c2-c2ccccc2C3(O)C(F)(F)F)cn1` (centres unmarked) [compound 508] are less than 100 nM and 48 nM.
The corresponding values for `OCCn1cc(-c2cc(OCCC34CC5CC(CC(C5)C3)C4)cc3c2-c2ccccc2C3(O)C(F)(F)F)cn1` (centres unmarked) [compound 509] are less than 100 nM and 51 nM.
On the same counts, the results for `O=C(O)CCCOc1cc(-c2cncnc2)c2c(c1)C(O)(C(F)(F)F)c1ccccc1-2` (centres unmarked) [compound 510] are less than 100 nM and 62 nM.
On to `CCNC(=O)Cn1cc(-c2cccc3c2-c2ccccc2C3(O)C(F)(F)F)cn1` (centres unmarked) [compound 511], for which the IC50 is less than 100 nM under setting [1] and 56 nM under setting [2].
The corresponding values for `CNC(=O)Cn1cc(-c2cc(C)cc3c2-c2ccccc2C3(O)C(F)(F)F)cn1` (centres unmarked) [compound 512] are less than 100 nM and 38 nM.
On the same counts, the results for `CNC(=O)Cn1cc(-c2cc(Cl)cc3c2-c2ccccc2C3(O)C(F)(F)F)cn1` (centres unmarked) [compound 513] are less than 100 nM and 32 nM.
